Laboratory results: patent publication US8110585B2, “Bicyclic compound and pharmaceutical use thereof” (Takeda Pharmaceutical Company Limited, priority 2007, dated 2012)

Legend:
[1] = target: T1, human melatonin 1 receptors (human MT1 receptors) (Homo sapiens, UniProt P48039); assay: Melatonin receptor binding inhibitory test, 2-[125I] Iodomelatonin, MT1; settings: membrane fraction of CHO-hMelR7 cells, 25° C. for 2.5 hr, read-out: binding inhibitory activity as IC50 value for MT1
T1 construct: expressed in transfected cells; membrane fraction
Procedure: (§1) Melatonin Receptor Binding Inhibitory Test
(1) Preparation of CHO-hMelR7 Cells expressing Human Melatonin 1 Receptors
A cDNA fragment (SEQ ID NO: 1) encoding full-length of human melatonin 1 receptors (human MT1 receptors) was incorporated into expression vector pAKKO-111H (former name pAKKO1.11H; Biochim Biophys Acta. Vol. 1219(2), pp. 251-259, 1994) to give plasmid pAKKO-hMelR7 for animal cell expression. CHO/dhfr-cells (ATCC, #CRL-9096) were plated at a concentration of 0.3×10^6 cells/dish in a 6 cm culture dish (Becton Dickinson), and cultured under the conditions of 37° C., 5% CO2 for 48 hr. The cells were transfected with pAKKO-hMelR7 plasmid DNA (5 μg) using Cellphect Transfection Kit (Amersham, #27-9268-01). The transfected cells were cultured in Dulbecco's modified Eagle medium (DMEM) (Sigma, #D6046) containing 10% dialyzed FBS (Biowest, #S180D), 1× Non-Essential Amino Acid (Invitrogen, #11140-050) and 50 μg/mL Gentamycin (Invitrogen, #15750-060), and the cell line that stably expressed the plasmid gene was selected. By a receptor binding assay using 2-[^125I] Iodomelatonin, CHO-hMelR7 cell line showing specific binding of 2-[^125I] Iodomelatonin was selected from the obtained clones.
(§2) (3) Preparation of Cellular Membrane Fraction of CHO Cell (CHO-hMelR7 and CHO-hMT2) Stably Expressing Human MT1 and MT2 Receptors
(§3) CHO-hMelR7 and CHO-hMT2 cells were plated using Cellfactory (Nunc, #170009) under the conditions of 1×10^8 cells/2000 mL/flask. The cells were grown to confluent, and recovered by the following method. As the medium for CHO-hMelR7 and CHO-hMT2, MEM a containing 10% FBS and penicillin/streptomycin was used. […]
(§4) The medium was discarded, cells were washed twice with 200 mL of EDTA/PBS(−), 200 mL of EDTA/PBS(−) was further added, and the cells were stood still at room temperature for 20 min until they were released. The cells were recovered in four 50 mL tubes (Becton Dickinson, #352070), and centrifuged at 1,500 rpm for 10 min at 4° C. using a low speed cooling centrifuge (Hitachi, CF7D2). The supernatant was discarded, the pellets in the four tubes were suspended in 10 mL of PBS(−), and combined in one tube (Becton Dickinson, #352070). The mixture was further centrifuged at 1,500 rpm for 10 min at 4° C., and the obtained pellets were suspended in 20 mL of ice-cooled homogenizing buffer [10 mM NaHCO3, 5 mM EDTA, Protease inhibitor Complete (Roche), pH 7.4]. The cell suspension was homogenized 3 times using a polytron homogenizer at 20,000 rpm for 30 sec. The obtained homogenate was centrifuged (2,000 rpm, 10 min, 4° C.) using a low speed cooling centrifuge. The supernatant was recovered in an ultracentrifugation tube and ultracentrifuged (40,000 rpm, 60 min, 4° C.) using an ultracentrifuge (Beckman, L-90K). To the obtained pellets was added a suspending buffer [50 mM Tris-HCl, 1 mM EDTA, Protease inhibitor Complete (Roche), pH 7.4], and the pellets were suspended by pipetting. The protein concentration of this suspension was measured, diluted to 2 mg/mL to give cellular membrane fractions of CHO-hMelR7 and CHO-hMT2 cells. The membrane fractions were dispensed to 1.5 mL tubes (Eppendorf, #0030120.086) by 100 μL, preserved in a freezer (−80° C.) and used for a binding assay. Protein was quantified using BCA protein assay kit (Pierce) with BSA as the standard.
(§5) (4) Preparation of Membrane Fraction Suspension
(§6) Immediately before use, the membrane fractions of CHO-hMelR7 and CHO-hMT2 cells of the above-mentioned (3) were diluted 20-fold with assay buffer (50 mM Tris-HCl, pH 7.7).
(§7) (5) Preparation of 2-[^125I] Iodomelatonin Solution
(§8) 2-[^125I] Iodomelatonin (#NEX236, PerkinElmer) was diluted with the assay buffer to 400 pM for MT1 and 1 nM for MT2.
The assay buffer (80 μL) of the above-mentioned (4) was added to each well of a 96-well plate (type 3363, Corning). Then, a test compound (compound solution diluted with DMSO to 200-fold of the final measurement concentration) was added by 2 μL. […]

[2] = target: T2, human melatonin 2 receptors (human MT2 receptors) (Homo sapiens, UniProt P49286); assay: Melatonin receptor binding inhibitory test, 2-[125I] Iodomelatonin, MT2; settings: membrane fraction of CHO-hMT2 cells, 25° C. for 2.5 hr, read-out: binding inhibitory activity as IC50 value for MT2
T2 construct: expressed in transfected cells; membrane fraction
T2 sequence (P49286 1-362): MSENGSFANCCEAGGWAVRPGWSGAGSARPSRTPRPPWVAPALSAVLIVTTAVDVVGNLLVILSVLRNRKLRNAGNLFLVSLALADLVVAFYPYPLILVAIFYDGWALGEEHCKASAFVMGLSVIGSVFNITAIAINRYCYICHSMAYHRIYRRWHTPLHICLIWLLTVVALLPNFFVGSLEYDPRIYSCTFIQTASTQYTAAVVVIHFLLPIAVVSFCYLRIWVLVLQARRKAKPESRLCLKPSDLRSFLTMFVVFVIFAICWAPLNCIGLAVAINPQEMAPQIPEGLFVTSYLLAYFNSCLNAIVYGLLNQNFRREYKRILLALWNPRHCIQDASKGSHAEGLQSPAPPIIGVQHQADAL
Procedure: as §1
(2) Preparation of CHO-hMT2 Cells Expressing Human Melatonin 2 Receptors
A cDNA fragment (SEQ ID NO: 2) encoding full-length of human melatonin 2 receptors (human MT2 receptors) was incorporated into expression vector pCMV-Script (Stratagene, #212220) to give the plasmid that was pCMV-human MT2 receptors expression vector for animal cell expression. CHO-K1 cells (ATCC, #CCL-61) were plated at the concentration of 1.5×10^5 cells/cm^2 in a 6 well plate (ASAHI TECHNO GLASS), and cultured under the conditions of 37° C., 5% CO2 for 24 hr. For gene transfection, solution obtained by blending pCMV-human MT2 receptors expression vector (1.9 μg), Lipofectamine Transfection Reagent (Invitrogen, #18324-012) (11.3 μL) and Minimum Essential Medium Eagle (MEM) medium (Sigma, M8042) (93.8 μL), and reacting at room temperature for 20 min was added to the cells per one well. The transfected cells were cultured in MEM medium containing 10% FBS (Life Technology) and 300 μg/mL Geneticin (GIBCO, #10131), and the cell line that stably expressed the plasmid gene was selected. By a receptor binding assay using 2-[^125I] Iodomelatonin, CHO-hMT2 cell line showing specific binding of 2-[^125I] Iodomelatonin was selected from the obtained clones.
as §2, §3, §4, §5, §6, §7, §8
The assay buffer (80 μL) of the above-mentioned (4) was added to each well of a 96-well plate (type 3363, Corning). […]

T1 sequence (P48039 whole entry): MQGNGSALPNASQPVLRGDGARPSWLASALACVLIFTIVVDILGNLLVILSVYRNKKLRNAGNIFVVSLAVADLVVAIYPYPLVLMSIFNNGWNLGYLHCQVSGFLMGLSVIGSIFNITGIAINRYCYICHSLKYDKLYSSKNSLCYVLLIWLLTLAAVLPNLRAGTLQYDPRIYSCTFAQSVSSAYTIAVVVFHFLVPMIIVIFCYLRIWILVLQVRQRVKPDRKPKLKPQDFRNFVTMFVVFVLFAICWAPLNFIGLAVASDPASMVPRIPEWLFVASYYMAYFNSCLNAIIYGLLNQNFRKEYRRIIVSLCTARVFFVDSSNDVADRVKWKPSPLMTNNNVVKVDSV

Q: With CC(=O)NCC1CC1c1c(C2CC2)ccc2nn(C)cc12 (stereo not drawn) [Example 33, N-{[2-(5-cyclopropyl-2-methyl-2H-indazol-4-yl)cyclopropyl]methyl}acetamide] as the compound, how does the IC50 [1] read?
A: ≤ 100 nM

Q: What about the IC50 [2] of the same compound?
A: ≤ 100 nM

Q: What about the melting point of the same compound?
A: 102 to 103 °C

Q: Which IC50 [1] does the source give for CC(=O)NCC1CC1c1c(-c2ccccc2)ccc2nn(C)cc12 (stereo not drawn) [Example 34, N-{[2-(2-methyl-5-phenyl-2H-indazol-4-yl)cyclopropyl]methyl}acetamide] here?
A: ≤ 100 nM

Q: What about the IC50 [2] of the same compound?
A: ≤ 100 nM

Q: And the melting point?
A: 156 to 158 °C

Q: Which results are given for CC(=O)NCC1CC1c1c(-c2cccnc2)ccc2nn(C)cc12 (stereo not drawn) [Example 35, N-{[2-(2-methyl-5-pyridin-3-yl-2H-indazol-4-yl)cyclopropyl]methyl}acetamide]?
A: IC50 [1]: ≤ 100 nM; IC50 [2]: ≤ 100 nM; melting point: 136 to 138 °C

Q: Which results are given for CC(=O)NCC1CC1c1c(C#N)ccc2nn(C)cc12 (stereo not drawn) [Example 36, N-{[2-(5-cyano-2-methyl-2H-indazol-4-yl)cyclopropyl]methyl}acetamide]?
A: IC50 [1]: ≤ 100 nM; IC50 [2]: ≤ 100 nM; melting point: 189 to 192 °C

Q: For COc1ccc2nn(C)cc2c1C1CC1CNC(C)=O (stereo not drawn) [Example 37, N-{[2-(5-methoxy-2-methyl-2H-indazol-4-yl)cyclopropyl]methyl}acetamide], which IC50 [1] is on record?
A: ≤ 100 nM

Q: What about the IC50 [2] of the same compound?
A: ≤ 100 nM

Q: What about the melting point of the same compound?
A: 104 to 105 °C

Q: Which IC50 [1] does the source give for CC(=O)NCC1CC1c1ccc(F)c2nn(C)cc12 (stereo not drawn) [Example 38, N-{[2-(7-fluoro-2-methyl-2H-indazol-4-yl)cyclopropyl]methyl}acetamide] here?
A: ≤ 100 nM

Q: And the IC50 [2]?
A: ≤ 100 nM

Q: What about the melting point of the same compound?
A: 147 to 148 °C

Q: With CC(=O)NCC1CC1c1ccc(Cl)c2nn(C)cc12 (stereo not drawn) [Example 39, N-{[2-(7-chloro-2-methyl-2H-indazol-4-yl)cyclopropyl]methyl}acetamide] as the compound, how does the IC50 [1] read?
A: ≤ 100 nM

Q: And the IC50 [2]?
A: ≤ 100 nM

Q: And the melting point?
A: 153 to 155 °C

Q: Which IC50 [1] does the source give for CC(=O)NC[C@H]1C[C@@H]1c1cccn2nc(C)cc12 [Example 43, N-{[(1S,2S)-2-(2-methylpyrazolo[1,5-a]pyridin-4-yl)cyclopropyl]methyl}acetamide] here?
A: ≤ 100 nM

Q: What about the IC50 [2] of the same compound?
A: ≤ 100 nM

Q: And the melting point?
A: 69 to 70 °C

Q: Which results are given for CC(=O)NC[C@@H]1C[C@H]1c1cccn2nc(C)cc12 [Example 44, N-{[(1R,2R)-2-(2-methylpyrazolo[1,5-a]pyridin-4-yl)cyclopropyl]methyl}acetamide]?
A: IC50 [1]: ≤ 100 nM; IC50 [2]: ≤ 100 nM; melting point: 100 to 101 °C

Q: Which results are given for Cc1cc2c([C@H]3C[C@@H]3CNC(=O)C3CC3)cccn2n1 [Example 48, N-{[(1S,2S)-2-(2-methylpyrazolo[1,5-a]pyridin-4-yl)cyclopropyl]methyl}cyclopropanecarboxamide]?
A: IC50 [1]: ≤ 100 nM; IC50 [2]: ≤ 100 nM; melting point: 124 to 128 °C

Q: With Cc1cc2c([C@@H]3C[C@H]3CNC(=O)C3CC3)cccn2n1 [Example 49, N-{[(1R,2R)-2-(2-methylpyrazolo[1,5-a]pyridin-4-yl)cyclopropyl]methyl}cyclopropanecarboxamide] as the compound, how does the IC50 [1] read?
A: ≤ 100 nM

Q: And the IC50 [2]?
A: ≤ 100 nM

Q: What about the melting point of the same compound?
A: 127 to 129 °C

Q: For CC(=O)NCC1CC1c1cccc2nc(C)cn12 (stereo not drawn) [Example 52, N-{[2-(2-methylimidazo[1,2-a]pyridin-5-yl)cyclopropyl]methyl}acetamide], which IC50 [1] is on record?
A: ≤ 100 nM

Q: And the IC50 [2]?
A: ≤ 100 nM

Q: What about the melting point of the same compound?
A: 170 to 171 °C

Q: What does the source list for CCC(=O)NCC1CC1c1cccc2nc(C)cn12 (stereo not drawn) [Example 53, N-{[2-(2-methylimidazo[1,2-a]pyridin-5-yl)cyclopropyl]methyl}propanamide]?
A: IC50 [1]: ≤ 100 nM; IC50 [2]: ≤ 100 nM; melting point: 88 to 90 °C

Q: Which IC50 [1] does the source give for CC(=O)NCC1CC1c1cccc2nc(C)nn12 (stereo not drawn) [Example 56, N-{[2-(2-methyl[1,2,4]triazolo[1,5-a]pyridin-5-yl)cyclopropyl]methyl}acetamide] here?
A: ≤ 100 nM

Q: And the IC50 [2]?
A: ≤ 100 nM

Q: What about the melting point of the same compound?
A: 124 to 126 °C

Q: With CCC(=O)NCC1CC1c1cccc2nc(C)nn12 (stereo not drawn) [Example 57, N-{[2-(2-methyl[1,2,4]triazolo[1,5-a]pyridin-5-yl)cyclopropyl]methyl}propanamide] as the compound, how does the IC50 [1] read?
A: ≤ 100 nM

Q: And the IC50 [2]?
A: ≤ 100 nM

Q: What about the melting point of the same compound?
A: 118 to 119 °C

Q: Which results are given for CC(=O)NCC1CC1c1cccc2nc(C)sc12 (stereo not drawn) [Example 58, N-{[2-(2-methyl-1,3-benzothiazol-7-yl)cyclopropyl]methyl}acetamide]?
A: IC50 [1]: ≤ 100 nM; IC50 [2]: ≤ 100 nM; melting point: 96 to 98 °C

Q: What does the source list for CCC(=O)NCC1CC1c1cccc2nc(C)sc12 (stereo not drawn) [Example 59, N-{[2-(2-methyl-1,3-benzothiazol-7-yl)cyclopropyl]methyl}propanamide]?
A: IC50 [1]: ≤ 100 nM; IC50 [2]: ≤ 100 nM; melting point: 59 to 61 °C

Q: Which IC50 [1] does the source give for CC(=O)NCC1CC1c1cccc2nnsc12 (stereo not drawn) [Example 60, N-{[2-(1,2,3-benzothiadiazol-7-yl)cyclopropyl]methyl}acetamide] here?
A: ≤ 100 nM

Q: What about the IC50 [2] of the same compound?
A: ≤ 100 nM

Q: What about the melting point of the same compound?
A: 81 to 82 °C

Q: With CCC(=O)NCC1CC1c1cccc2nnsc12 (stereo not drawn) [Example 61, N-{[2-(1,2,3-benzothiadiazol-7-yl)cyclopropyl]methyl}propanamide] as the compound, how does the IC50 [1] read?
A: ≤ 100 nM

Q: What about the IC50 [2] of the same compound?
A: ≤ 100 nM

Q: What about the melting point of the same compound?
A: 67 to 69 °C

Q: Which results are given for CC(=O)NCC1CC1c1cccc2nscc12 (stereo not drawn) [Example 62, N-{[2-(2,1-benzisothiazol-4-yl)cyclopropyl]methyl}acetamide]?
A: IC50 [1]: ≤ 100 nM; IC50 [2]: ≤ 100 nM; melting point: 96 to 97 °C
